Assays:
[1] = Higher loading of progesterone by heat treatment (GMO/oleic acid/Lutrol F127 cubic particles); format: physicochemical
Method: Pre-formulations were prepared, including the fatty acid oleic acid, by the following method. • a) An initial melt was prepared containing GMO (85.5%), oleic acid (4.5%) and Lutrol F127 (10%). To 9 g of water under mechanical stirring was added 1 g of the molten mixture to form a coarse dispersion. • b) The coarse dispersion was homogenised with a microfluidiser at 345 bar. • c) The dispersion was heated to 120° C. for 20 minutes and cooled to room temperature.
The steroid hormone progesterone was incubated with the cubic particles formed in steps a) to c), at room temperature. The equilibrium loading level was 3% by weight.
The above method was repeated by the active agent progesterone was included in the aqueous phase prior to the homogenisation and heat treatment steps. The loading level was again examined and established to be 18 wt %. The effect upon the particle size distribution was minimal.
The composition with 18 wt % progesterone generated above was stored at room temperature for 14 days.

[2] = Effect of heat treatment on carrier-bound fraction of octreotide (loading system 3); format: physicochemical; conditions: 200 μg/ml octreotide, 5% amphiphile analogue of loading system 3
Method: Octreotide at a concentration of 200 μg/ml was added to 5% amphiphile analogues of loading system 3 (water content 95%). One set of samples were equilibrated at room temperature for 1 day, while another set was autoclaved at 125° C. for 20 minutes. The ocreotide concentration was determined by HPLC using a size exclusion column coupled to a UV detector.

Structure (SMILES): CC(=O)[C@H]1CC[C@H]2[C@@H]3CCC4=CC(=O)CC[C@]4(C)[C@H]3CC[C@]12C [progesterone]
- Effect upon the particle size distribution ([1]; heat treatment loading of progesterone): minimal
- Loading level ([1]; progesterone in aqueous phase prior to homogenisation and heat treatment (120° C., 20 minutes)): 18 wt %
- Equilibrium loading level ([1]; progesterone incubated with preformed cubic particles at room temperature): 3 % by weight

Structure (SMILES): C[C@@H](O)[C@@H]1NC(=O)[C@H](CCCCN)NC(=O)[C@@H](Cc2c[nH]c3ccccc23)NC(=O)[C@H](Cc2ccccc2)NC(=O)[C@@H](NC(=O)[C@H](N)Cc2ccccc2)CSSC[C@@H](C(=O)N[C@H](CO)[C@@H](C)O)NC1=O [octreotide]
- % bound octreotide ([2]; 1 day at room temperature): 18.07%
- % bound octreotide ([2]; After Autoclavation 20 min (125° C.)): 30.04%

Source: patent publication US9067190B2, “Method for loading amphiphile particles with active agents” (CAMURUS AB, priority 2003, dated 2015)
